# Measurements as given in patent US20180263985A1, “MODULATORS OF TOLL-LIKE RECEPTORS FOR THE TREATMENT OF HIV” (Gilead Sciences, Inc., priority 2015, published 2018).
# Tested on: PBMC cultures from HIV-1 infected subjects on cART
# Assay: Induced cytokines and chemokines in PBMC cultures, multiplexed xMAP Luminex, geometric mean values
# Format: cell-based, human
# Conditions: for GRO-α Fold / Granzyme B Fold / I-TAC Fold / IFN-α Fold / IFN-γ Fold / IL-1RA Fold / IL-1β Fold / IL-6 Fold / IL-8 Fold / IL-10 Fold / IL-18 Fold / IL-23 Fold / IP-10 Fold / MCP-1 Fold / MIP-1α Fold / MIP-1β Fold / MIP-3α Fold / MMP-1 Fold / TNF-α Fold / IL-12p70 Fold: day 2, 4 subjects
# Procedure: To further characterize the immune modulatory effect of TLR8 agonists in cells from HIV-infected subjects, the production of secreted cytokines and chemokines was measured in PBMCs from 4 HIV-infected subjects on suppressive cART (anonymized participant IDs 180-183). PBMCs were purified, as described in Example 121, and immediately added to tissue culture plates pre-equilibrated at 37° C. with media containing DMSO (vehicle control) or with the TLR8 modulating compound Example 15 at concentrations ranging from 1.0 nM to 10.0 μM. On day 2 after treatment, cell-free culture supernatants were collected and frozen at −80 C for subsequent analysis. Frozen supernatants were thawed at room temperature, and the indicated cytokines and chemokines were quantified with a custom multiplexed xMAP Luminex® assay following the manufacturer's instructions (Thermo Fisher Scientific Inc., Grand Island, N.Y., custom-designed kit).
# Data are expressed as geometric mean cytokine values (pg/ml) obtained from 4 subjects' PBMCs. Geometric mean fold-activation from three independent incubation samples for each condition. Fold (fold-activation) is calculated as a ratio of the concentration of cytokine detected in cell culture supernatants from agonist treated samples relative to DMSO treated samples
# [1] = 1.0 nM to 10.0 μM, not induced >2-fold
structure (smiles),measurement,setting,value
CCCC[C@H](CO)Nc1nc(N)nc2cccnc12 [Example 15],IFN-ω induction compared to DMSO control,[1],≤ 2 fold
same,IL-2 induction compared to DMSO control,[1],≤ 2 fold
same,IL-4 induction compared to DMSO control,[1],≤ 2 fold
same,IL-5 induction compared to DMSO control,[1],≤ 2 fold
same,IL-7 induction compared to DMSO control,[1],≤ 2 fold
same,IL-15 induction compared to DMSO control,[1],≤ 2 fold
same,IL-17A induction compared to DMSO control,[1],≤ 2 fold
same,IL-21 induction compared to DMSO control,[1],≤ 2 fold
same,IL-27 induction compared to DMSO control,[1],≤ 2 fold
same,IL-29 induction compared to DMSO control,[1],≤ 2 fold
same,GRO-α Fold,1 nM vs DMSO,1 fold
same,Granzyme B Fold,1 nM vs DMSO,<1 fold
same,I-TAC Fold,1 nM vs DMSO,2 fold
same,IFN-α Fold,1 nM vs DMSO,2 fold
same,IFN-γ Fold,1 nM vs DMSO,2 fold
same,IL-1RA Fold,1 nM vs DMSO,3 fold
same,IL-1β Fold,1 nM vs DMSO,2 fold
same,IL-6 Fold,1 nM vs DMSO,1 fold
same,IL-8 Fold,1 nM vs DMSO,2 fold
same,IL-10 Fold,1 nM vs DMSO,1 fold
same,IL-18 Fold,1 nM vs DMSO,1 fold
same,IL-23 Fold,1 nM vs DMSO,2 fold
same,IP-10 Fold,1 nM vs DMSO,3 fold
same,MCP-1 Fold,1 nM vs DMSO,3 fold
same,MIP-1α Fold,1 nM vs DMSO,5 fold
same,MIP-1β Fold,1 nM vs DMSO,2 fold
same,MIP-3α Fold,1 nM vs DMSO,1 fold
same,MMP-1 Fold,1 nM vs DMSO,1 fold
same,GRO-α Fold,10 nM vs DMSO,1 fold
same,Granzyme B Fold,10 nM vs DMSO,<1 fold
same,I-TAC Fold,10 nM vs DMSO,1 fold
same,IFN-α Fold,10 nM vs DMSO,2 fold
same,IFN-γ Fold,10 nM vs DMSO,2 fold
same,IL-1RA Fold,10 nM vs DMSO,1 fold
same,IL-1β Fold,10 nM vs DMSO,1 fold
same,IL-6 Fold,10 nM vs DMSO,1 fold
same,IL-8 Fold,10 nM vs DMSO,1 fold
same,IL-10 Fold,10 nM vs DMSO,1 fold
same,IL-18 Fold,10 nM vs DMSO,2 fold
same,IL-23 Fold,10 nM vs DMSO,1 fold
same,IP-10 Fold,10 nM vs DMSO,1 fold
same,MCP-1 Fold,10 nM vs DMSO,1 fold
same,MIP-1α Fold,10 nM vs DMSO,1 fold
same,MIP-1β Fold,10 nM vs DMSO,1 fold
same,MIP-3α Fold,10 nM vs DMSO,1 fold
same,MMP-1 Fold,10 nM vs DMSO,1 fold
same,TNF-α Fold,10 nM vs DMSO,2 fold
same,GRO-α Fold,100 nM vs DMSO,20 fold
same,Granzyme B Fold,100 nM vs DMSO,<1 fold
same,I-TAC Fold,100 nM vs DMSO,1 fold
same,IFN-α Fold,100 nM vs DMSO,1 fold
same,IFN-γ Fold,100 nM vs DMSO,2 fold
same,IL-1RA Fold,100 nM vs DMSO,12 fold
same,IL-1β Fold,100 nM vs DMSO,45 fold
same,IL-6 Fold,100 nM vs DMSO,57 fold
same,IL-8 Fold,100 nM vs DMSO,8 fold
same,IL-10 Fold,100 nM vs DMSO,145 fold
same,IL-12p70 Fold,100 nM vs DMSO,2 fold
same,IL-18 Fold,100 nM vs DMSO,1 fold
same,IL-23 Fold,100 nM vs DMSO,2 fold
same,IP-10 Fold,100 nM vs DMSO,1 fold
same,MCP-1 Fold,100 nM vs DMSO,33 fold
same,MIP-1α Fold,100 nM vs DMSO,3 fold
same,MIP-1β Fold,100 nM vs DMSO,1 fold
same,MIP-3α Fold,100 nM vs DMSO,1 fold
same,MMP-1 Fold,100 nM vs DMSO,2 fold
same,TNF-α Fold,100 nM vs DMSO,6 fold
same,GRO-α Fold,1000 nM vs DMSO,18 fold
same,Granzyme B Fold,1000 nM vs DMSO,4 fold
same,I-TAC Fold,1000 nM vs DMSO,2 fold
same,IFN-α Fold,1000 nM vs DMSO,3 fold
same,IFN-γ Fold,1000 nM vs DMSO,228 fold
same,IL-1RA Fold,1000 nM vs DMSO,46 fold
same,IL-1β Fold,1000 nM vs DMSO,1578 fold
same,IL-6 Fold,1000 nM vs DMSO,290 fold
same,IL-8 Fold,1000 nM vs DMSO,5 fold
same,IL-10 Fold,1000 nM vs DMSO,219 fold
same,IL-12p70 Fold,1000 nM vs DMSO,175 fold
same,IL-18 Fold,1000 nM vs DMSO,11 fold
same,IL-23 Fold,1000 nM vs DMSO,8 fold
same,IP-10 Fold,1000 nM vs DMSO,3 fold
same,MCP-1 Fold,1000 nM vs DMSO,22 fold
same,MIP-1α Fold,1000 nM vs DMSO,374 fold
same,MIP-1β Fold,1000 nM vs DMSO,340 fold
same,MIP-3α Fold,1000 nM vs DMSO,42 fold
same,MMP-1 Fold,1000 nM vs DMSO,3 fold
same,TNF-α Fold,1000 nM vs DMSO,1661 fold
same,GRO-α Fold,3000 nM vs DMSO,18 fold
same,Granzyme B Fold,3000 nM vs DMSO,4 fold
same,I-TAC Fold,3000 nM vs DMSO,2 fold
same,IFN-α Fold,3000 nM vs DMSO,3 fold
same,IFN-γ Fold,3000 nM vs DMSO,143 fold
same,IL-1RA Fold,3000 nM vs DMSO,25 fold
same,IL-1β Fold,3000 nM vs DMSO,1767 fold
same,IL-6 Fold,3000 nM vs DMSO,195 fold
same,IL-8 Fold,3000 nM vs DMSO,4 fold
same,IL-10 Fold,3000 nM vs DMSO,279 fold
same,IL-12p70 Fold,3000 nM vs DMSO,127 fold
same,IL-18 Fold,3000 nM vs DMSO,18 fold
same,IL-23 Fold,3000 nM vs DMSO,19 fold
same,IP-10 Fold,3000 nM vs DMSO,3 fold
same,MCP-1 Fold,3000 nM vs DMSO,25 fold
same,MIP-1α Fold,3000 nM vs DMSO,421 fold
same,MIP-1β Fold,3000 nM vs DMSO,240 fold
same,MIP-3α Fold,3000 nM vs DMSO,82 fold
same,MMP-1 Fold,3000 nM vs DMSO,3 fold
same,TNF-α Fold,3000 nM vs DMSO,3051 fold
same,GRO-α Fold,10000 nM vs DMSO,19 fold
same,Granzyme B Fold,10000 nM vs DMSO,3 fold
same,I-TAC Fold,10000 nM vs DMSO,1 fold
same,IFN-α Fold,10000 nM vs DMSO,2 fold
same,IFN-γ Fold,10000 nM vs DMSO,59 fold
same,IL-1RA Fold,10000 nM vs DMSO,25 fold
same,IL-1β Fold,10000 nM vs DMSO,2204 fold
same,IL-6 Fold,10000 nM vs DMSO,241 fold
same,IL-8 Fold,10000 nM vs DMSO,4 fold
same,IL-10 Fold,10000 nM vs DMSO,304 fold
same,IL-12p70 Fold,10000 nM vs DMSO,38 fold
same,IL-18 Fold,10000 nM vs DMSO,13 fold
same,IL-23 Fold,10000 nM vs DMSO,16 fold
same,IP-10 Fold,10000 nM vs DMSO,2 fold
same,MCP-1 Fold,10000 nM vs DMSO,27 fold
same,MIP-1α Fold,10000 nM vs DMSO,487 fold
same,MIP-1β Fold,10000 nM vs DMSO,196 fold
same,MIP-3α Fold,10000 nM vs DMSO,65 fold
same,MMP-1 Fold,10000 nM vs DMSO,8 fold
same,TNF-α Fold,10000 nM vs DMSO,1096 fold
